# Source: patent publication US11884710B2, “Peptide compounds and methods of use in wound healing” (priority 2013, dated 2024)
# How the values were obtained:
# [1] = tested on: Acinetobacter baumannii ATCC BAA-747; assay: In vitro bactericidal assay, A. baumannii ATCC BAA-747 (FIGS. 10-11); format: cell-based; conditions: for reduction of CFU/ml: highest peptide concentration
# Description: (§1) Each of the test peptides was used at 25, 12.5 6.25 and 3.12 μM. The gentamicin was used at 4 μg/ml. 1×10^6/ml Acinetobacter baumannii ATCC® BAA-747™ (American Type Culture Collection, Manassas, Va.) were incubated with the peptides, negative buffer control (tryptone saline), and positive control gentamicin for 60 minutes at pH 5.5. 50 μl aliquots were plated out on agar plates and incubated overnight. Colony forming units were counted after overnight incubation and CFU/ml calculated.
# as §1, with “7.2.” for “5.5.”
# For FIGS. 10-13, in vitro bactericidal assays were performed using a starting inoculum of 1×10^6 CFU/ml of the bacterial suspension. The CFU remaining at the end of the 60-180 minute incubation was determined, and the data was plotted as log reduction in CFU/ml.
# In particular, each of the test peptides (CAP37 peptides 120-146WR, 120-146WH, and 95-122 (SEQ ID NOS:30, 31, and 26, respectively)) was used at 25, 12.5, 6.25, and 3.12 μM. Gentamicin was used at 4 μg/ml. 1×10^6/ml Acinetobacter baumannii ATCC® BAA-747™ or Pseudomonas aeruginosa ATCC® 27853™ (American Type Culture Collection, Manassas, Va.) were incubated with the peptides, negative buffer control (tryptone saline), and positive control gentamicin at pH 5.5 or 7.2. A 60 minute incubation was used for Acinetobacter baumannii ATCC® BAA-747™, while a 180 minute incubation was used for Pseudomonas aeruginosa ATCC® 27853™. 50 μl aliquots were plated out on agar plates and incubated overnight. Colony forming units were counted after overnight incubation and CFU/ml calculated.
# [2] = tested on: mouse corneal epithelium abrasion; assay: In vivo model of corneal wound healing
# Description: (§2) The mouse corneal epithelium was removed using the AlgerBrush II (The Alger Company, Inc., Lago Vista, Tex.), and corneal abrasions were treated at 0 hours and 16 hours with peptide 95-122 (10^−5 M), or were left untreated in 0.9% sodium chloride (saline vehicle) Wound healing was monitored at 0, 16, and 24 hours using fluorescein staining and a camera-equipped inverted microscope. Data are represented as the percentage of wound closure at 16 hours and 24 hours and are expressed as means±SEM. The data are representative of at least 6 mice per group. *P<0.05 by unpaired t-test as compared to vehicle (0.9% sodium chloride) treated controls.
# as §2, with “II,” for “II (The Alger Company, Inc., Lago Vista, Tex.),”, “0” for “0 hours”, “120-146WH (10^−8 M or 10^−6” for “95-122 (10^−5”, “vehicle control).” for “vehicle)”, “group. ***P<0.001,” for “group.”
# (A) The epithelium of the mouse cornea was removed using the AlgerBrush II, and corneal abrasions were treated at 0 and 16 hours with HB-EGF (250 ng/ml), rCAP37 (250 ng/ml), or vehicle control (normal saline). Wound closure was monitored at 0, 16, 24, and 48 hours using fluorescein staining and a camera-equipped inverted microscope. Data are represented as the percentage of wound closure and are expressed as mean±SEM. The data are representative of at least 6 mice per group. The percentage of wound closure in response to treatment was compared to vehicle-treated controls by unpaired t-test, **P<0.01, *P<0.05. (B) Representative images of mouse corneal wounds are shown at 0, 16, 24, and 48 hours following treatment with vehicle, HB-EGF, and CAP37. Black dotted lines indicate the wound edge.
# In vivo model of corneal wound healing: The in vivo model of wound healing was carried out using a disposable biopsy punch (2 mm, Miltex, York, Pa.) to demarcate the mouse cornea and a 0.5 mm burr using the AlgerBrush II (The Alger Company, Inc., Lago Vista, Tex.) to remove the corneal epithelium.
# In vivo model of wound healing: Mice were anesthetized using ketamine (100 mg/kg; Bionichepharma, LLC., St. Lake Forrest, Ill.) and xylazine ([…]; Rompun; Bayer Corp., Shawnee Mission, Kans.), and the right cornea was wounded as follows. A disposable biopsy punch (2 mm, Miltex, York, Pa.) was used to demarcate the mouse cornea. The corneal epithelium was carefully removed within the 2 mm demarcated area with a 0.5 mm burr using the AlgerBrush II (The Alger Company, Inc., Lago Vista, Tex.). The corneal abrasions were treated at 0 and 16 hours with HB-EGF (250 ng/ml), rCAP37 (250 ng/ml), or vehicle control (0.9% sodium chloride, pH 5.5, Baxter, Deerfield, Ill.). Corneal abrasions were visualized using sterile fluorescein sodium ophthalmic strips USP (FLUORETS®, Chauvin Laboratory, Aubenas, France) dampened with sterile PBS. […] The areas of the open wound were quantitated using ImageJ software (US National Institutes of Health), and the results were reported as the percentage of wound closure.
molecule,measurement,setting,value
GTRCQVAGWGSWRSGGRLSRFPRFVNV (derivative of peptide of Homo sapiens CAP37 protein) [Peptide 120-146WR],reduction of CFU/ml,"[1]; pH 5.5, 60 minutes",~4 logs
same,reduction of CFU/ml,"[1]; pH 7.2, 60 minutes",~5.5 logs
same,"bactericidal activity, in words",[1]; peptide at 12.5 μM,highly active
same,"bactericidal activity, in words",[1]; peptide at 25 μM,highly active
GTRCQVAGWGSWHSGGRLSRFPRFVNV (derivative of peptide of CAP37 protein) [Peptide 120-146WH],reduction of CFU/ml,"[1]; pH 5.5, 60 minutes",~4 logs
same,reduction of CFU/ml,"[1]; pH 7.2, 60 minutes",~5.5 logs
same,"bactericidal activity, in words",[1]; peptide at 25 μM,highly active
same,"amount of corneal wound healing vs vehicle, in words","[2]; peptide 10^−8 M or 10^−6 M at 0 and 16 hours, read at 16 and 24 hours",significantly greater
LDREANLTSSVTILPLPLQNATVEAGTR (listed as Homo sapiens) [Peptide 95-122],"bactericidal activity, in words","[1]; pH 5.5, 60 minutes, peptides 3.12-25 μM, gentamicin 4 μg/ml",not active
same,"bactericidal activity, in words","[1]; pH 7.2, 60 minutes, peptides 3.12-25 μM, gentamicin 4 μg/ml",not active
same,"corneal wound closure, in words","[2]; peptide 10^−5 M at 0 and 16 hours, read at 16 and 24 hours",promotes corneal wound healing in vivo
CAP37: cationic antimicrobial protein of Mr 37 kDa; recombinant CAP37 produced in human embryonic kidney (HEK) 293 cells (protein) IVGGRKARPRQFPFLASIQNQGRHFCGGALIHARFVMTAASCFQSQNPGVSTVVLGAYDLRRRERQSRQTFSISSMSENGYDPQQNLNDLMLLQLDREANLTSSVTILPLPLQNATVEAGTRCQVAGWGSQRSGGRLSRFPRFVNVTVTPEDQCRPNNVCTGVLTRRGGICNGDGGTPLVCEGLAHGVASFSLGPCGRGPDFFTRVALFRDWIDGVLNNPGP,reduction of corneal wound size,"[2]; CAP37 250 ng/ml at 0 and 16 hours, at 16 hours",71%
same,corneal wound closure,"[2]; CAP37 250 ng/ml at 0 and 16 hours, by 24 hours",83%
